Entries after “also recorded” stand apart in the source; their conditions may differ.
Tests used:
[1] = tested on: human diploid fibroblasts; test: DNA synthesis, [3H]thymidine incorporation; type: cell-based
Description: FIG. 5 represents reduction of growth factor-induced thymidine incorporation in near-senescent fibroblasts. […] The amount of [^3H]thymidine incorporated into DNA over 4 hrs was measured as described. The data represents an average of 3 counts in cpm. A representative experiment of the three is presented in A. Fold increase over the untreated control was calculated and plotted in B.
FIG. 18 represents changes in LPA-induced thymidine incorporation and cell proliferation in near-senescent fibroblasts versus presenescent fibroblasts. Subconfluent presenescent (passage 8, Pa 8) and near-senescent (passage 24, Pa 24) fibroblasts were serum-starved for 2 days and treated with LPA (1-70 μg/ml) for 16 hrs. The amount of [^3H]thymidine incorporated into DNA over 4 hrs was measured as described. The data represents an average of 3 counts in cpm in each independent experiments. A representative experiment of the three is presented in A. Converted fold increase over the untreated control was calculated and plotted in B.
Quiescent cells were labeled with [^3H]thymidine (0.5 μCi/ml) for 4 hrs and the […] radioactive thymidine was removed by washing with PBS. DNA was precipitated with 10% TCA and lysed in 0.5N NaOH. The radioactivity in neutralized lysates was counted in a liquid scintillation cocktail.

phospholipase D (PLD) = test: phosphatidylbutanol formation as an indication of phospholipase D activity; type: cell-based, human; conditions: passage 24 near-senescent cells vs presenescent; 0.5% 1-butanol, 20 min
Description: Subconfluent presenescent (passage 8: Pa 8) and near-senescent (passage 24: Pa 24) cells were serum-starved and labeled with [^3H]myristic acid overnight. […] A representative experiment of three performed in duplicate is presented.
Quiescent cells were labeled overnight with [^3H]myristic acid (1 μCi/ml) and then washed with PBS. Phosphatidylbutanol formation was measured as described by Yeo et al. (1994). Cells were preincubated with 0.5% (v/v) 1-butanol for 15 min and then treated with agonists for 20 min in the presence of 0.5% 1-butanol. Total lipids were extracted and separated by thin layer chromatography. The band of phosphatidylbutanol was scraped off the plates and its radioactivity was counted in a liquid scintillation cocktail.

ERK1 and ERK2 = test: ERK activation, phospho-ERK Western blot; type: cell-based, human
Description: Serum-starved presenescent (passage 10, Pa 10) and near-senescent (passage 29, Pa 29) fibroblasts were treated with 30 μg/ml LPA for the indicated times. The level of phospho-ERK in the cytosolic fraction from each cell, as an indication of ERK activation, was measured by Western blot analysis employing anti-phospho-ERK antibody.
The expression levels of signaling proteins were examined by Western blot analysis, as described previously (Yeo et al., 2000a). Total cell lysates were prepared in a lysis buffer containing 50 mM Tris-HCl, pH 7.5, containing 150 mM NaCl, 2 mM EDTA, 1 mM EGTA, 1 mM Na3VO4, 10 mM NaF, 1 mM DTT, 1 mM PMSF, 25 μg/ml leupeptin, 25 μg/ml aprotinin, 5 mM benzamidine, and 1% Nonidet P-40. The protein concentrations of the lysates were determined using a BCA protein assay kit, as described by the protocol supplied by the manufacturer. Cell lysates containing equal amounts of protein were resolved by SDS-polyacrylamide gel electrophoresis and transferred onto Immobilon PVDF membranes. […] To examine the level of phospholipase D 1/2, the immunoprecipitated protein obtained using 10 μl of anti-phospholipase D 1 anti-sera (Box45, ESTP4) was analyzed by Western blot against polyclonal anti-phospholipase D 1 antibodies (1:20 dilution of NC STP4 anti-serum).

PKA = test: measurement of protein kinase A activity (Kemptide, [γ-32P]ATP); type: cell-based, human; conditions: 30 μg/ml LPA
Description: FIG. 10 represents LPA-dependent PKA activity and CREB phosphorylation in presenescent and near-senescent fibroblasts. Subconfluent presenescent (passage 8, Pa 8) and near-senescent (passage 24, Pa 24) fibroblasts were serum-starved for 2 days and treated with 30 μg/ml LPA for the indicated times. The PKA activity (A) was determined in cell homogenates with kemptide and [γ^32P]ATP as substrates. The radioactivity incorporated into kemptide was measured by a beta-counter and the enzyme activity was calculated as pmol/min/mg protein. The data represents an average of triplicate experiments. The level of phospho-CREB (B) was measured by Western blot analysis using an anti-phospho-CREB antibody.
LPA-treated cells were harvested and homogenized in ice-cold homogenization buffer containing 0.25 M sucrose, 10 mM Tris-HCl, pH 7.5, 10 MM MgCl2, 2 mM EGTA, and protease inhibitors. Homogenates were centrifuged at 20,000×g at 4° C. for 20 min. Protein kinase A assays were performed as described previously (Yang et al., 1999). […] The paper was washed once with 0.75% phosphoric acid and the radioactivity incorporated into Kemptide was quantified on a scintillation counter (Model Tri-Carb 1600 CA, Packard Instrument Company). […] PKI-inhibitable kinase activity was calculated and the data were reported as percent of total PKA activity. […]

Substance: lysophosphatidic acid [LPA]
- fold increase of [3H]thymidine incorporation over untreated control, near-senescent vs presenescent ([1]; 50-70 μg/ml LPA): slightly higher
- agonist-induced DNA synthesis ([3H]thymidine incorporation) in near-senescent cells vs presenescent ([1]; near-senescent cells (passage 24)): reduced but less so than PDGF; also recorded: reduced
- concentration at which increase of [3H]thymidine incorporation is apparent ([1]; presenescent fibroblasts): 10 µg/mL
- concentration at which increase of [3H]thymidine incorporation is maximal ([1]; presenescent fibroblasts): 50 to 70 µg/mL
- reduction of PLD activity (phospholipase D (PLD)): ca. 20%
- level of phospho-ERK (ERK1 and ERK2; near-senescent HDF (passage 29), 30 μg/ml LPA): did not increase further
- ERK1 and ERK2 activation (phospho-ERK) (ERK1 and ERK2; presenescent HDF (passage 10), 30 μg/ml LPA for 10-30 min): stimulated
- PKA activity (PKA; near-senescent cells): increased
- PKA activity (PKA; presenescent cells): decreased

Source: US20060099568A1, “Signals and molecular species involved in senescence” (priority 2002, published 2006)
